Columns and labels:
DHL-8 = test: In situ mitochondrial cytochrome c release assay, DHL-8; assay type: cell-based; conditions: DHL-8, semi-permeabilized cells, 1 hour
Text: (§1) The on-target activity of compound 12 was validated. Changes in mitochondrial integrity were observed utilizing anti-cytochrome c conjugated to Alexa488 (BD). When the mitochondria are intact, they retain cytochrome c and have bright, punctate staining with the antibody whereas cells with compromised mitochondrial integrity will lose cytochrome c and will not stain with the antibody. This can be observed by microscopy as well as measured by a shift in fluorescence on the FL1 channel of a flow cytometer.
(§2) The selective response of mitochondria in semi-permeabilized cell lines to the compounds was observed. The assay was adapted from (Campos et al. (2006) Cytometry Part A. 69(A):515-523, which is hereby incorporated by reference in its entirety).
(§3) Suspension cell lines SUDHL6, SUDHL8, and SUDHL10 were grown in RPMI, washed once in 1×PBS and re-suspended at a concentration of 2e6/ml in assay buffer with 0.0025% Digitonin. Assay buffer; 300 mM Trehalose, 10 mM HEPES-KOH pH 7.7, 80 mM KCl, 1 mM EGTA, 1 mM EDTA, 0.1% BSA. 5 mM Succinate. […] Cytochrome c loss was measured by microscopy. At least 100 cells per treatment were counted and scored as positive for cytochrome c loss if they lacked staining. In both methods DMSO was calculated as 0% cytochrome c loss and the Bim response for DHL6 was used to determine 100% cytochrome c loss.

Mcl-1 1780 cell line = test: DAPI fluorescence cell-based cytotoxicity (apoptosis) assay, Mcl-1 1780; set-up: species or system mouse; conditions: Mcl-1 1780, 24 hours, 125 nM to 1 μM
Description: (§4) The mouse leukemia-derived cell lines Mcl-1-1780 and Bcl-2-1863 (Ryan et al., Proc. Nat. Acad. Sci USA, 107, 12895-12900, which is hereby incorporated by reference in its entirety) were obtained under license from Dana Farber Cancer Institute. Cells were grown in RPMI 1640 medium (GIBCO-BRL) with 2 mM L-glutamine, 4.5 g/L glucose, 1.0 mM sodium pyruvate and 5% fetal bovine serum. Cells were expanded in tissue culture in appropriate media and then sub-cultured into 96-well plates at a seeding density of 20,000 cells per well. After incubation for 24 hours, cells were treated with compounds that are titrated into appropriate medium with FCS. Four concentrations of compound were used: 1 μM, 500 nM, 250 nM, and 125 nM. Assay was run in triplicate for each compound at each concentration and averages were calculated. Cells were treated with compound for 24 hours, then fixed with methanol and stained with the DNA-binding agent DAPI (4′,6-diamidino-2-phenylindole). The cells were then examined by fluorescent microscopy; cells in which caspase 3 and caspase 7 have not been activated will emit at […] when excited by […] light. Caspase-mediated cleavage of nucleosomal proteins causes condensed, pyenotic nuclear morphology that may be measured by cell counting.

Bcl-2 1863 cell line = test: DAPI fluorescence cell-based cytotoxicity (apoptosis) assay, Bcl-2 1863; set-up: species or system mouse; conditions: Bcl-2 1863, 24 hours, 125 nM to 1 μM
Description: as §4

DHL-10 = test: In situ mitochondrial cytochrome c release assay, DHL-10; assay type: cell-based; conditions: DHL-10 (Bax/Bak-deficient), semi-permeabilized cells, 1 hour
Text: as §1, §2, §3

DHL-6 = test: In situ mitochondrial cytochrome c release assay, DHL-6; assay type: cell-based; conditions: DHL-6 (Bax/Bak-functional), semi-permeabilized cells, 1 hour
Text: as §1, §2, §3

CCN1CCN(C(c2ccc(C(F)(F)F)cc2)c2ccc3cccnc3c2O)CC1 (centres unmarked) [compound 12, 7-((4-ethylpiperazin-1-yl)(4-(trifluoromethyl)phenyl)methyl)quinolin-8-ol]
cytochrome c release (DHL-8): reduced activity
induction of apoptosis (cells exhibiting apoptosis) (Mcl-1 1780 cell line): induce apoptosis
induction of apoptosis (cells exhibiting apoptosis) (Bcl-2 1863 cell line): significantly lesser degree
cytochrome c release (DHL-10): lack of activity
cytochrome c release (DHL-6): activity

Source: patent publication US10765673B2, “Methods and compositions useful for treating diseases involving Bcl-2 family proteins with quinoline derivatives” (Eutropics Pharmaceuticals, Inc., priority 2012, dated 2020)
